Data on one compound can be found in publication PMC7297445, “Pharmacokinetic/Pharmacodynamic Determination and Preclinical Pharmacokinetics of the β-Lactamase Inhibitor ETX1317 and Its Orally Available Prodrug ETX0282” (ACS Infectious Diseases, 2020).

The nature of data set [1]: Human PK prediction (allometric scaling). The settings on record: for CL/F / V/F: predicted human. From the text: The methodology utilized for prediction of human PK of ETX1317 was consistent with methods used in support of similar chemotypes such as avibactam and ETX2514.[43] Human predictions for volume of distribution (Vd,ss) and clearance (CL) were within 2-fold of observed mean data obtained in Phase 1 studies, with renal clearance as the predominant clearance mechanism.[44],[45] Pharmacokinetic and excretion data from rats, dogs, and monkeys were used collectively for the projection of ETX1317 PK. Liver S9 incubations were also performed across all species (including human) to confirm consistent conversion of ETX0282 to ETX1317 at projected dose levels of ETX0282.[42] Human PK prediction of ETX1317 was completed using single species allometry for volume of distribution from dog PK and dog and monkey single species scaling using liver blood flow to predict non-renal clearance (CLNR).[46] […] While urinary excretion of ETX1317 was lower in dogs relative to monkeys and rats, human renal clearance (CLR) was predicted using dog-human renal correlation,[47] as this method has been highly predictive for compounds that are generally eliminated via renal excretion. The elimination half-life was estimated based upon the combined use of predicted parameters for clearance and volume of distribution, where T1/2 = ln 2*Vd,ss/CLtotal. Allometric scaling predicted human Vd,ss of 0.35 L/kg.
Based upon the non-clinical PK data, a range of 60–80% bioavailability and a moderate absorption rate of 0.5–1.0 h^–1 have been considered for humans. In consideration of these predicted parameters, mean percent fT > CT of 1 μg/mL (2× MIC of 0.5 μg/mL) estimates for a 500 mg ETX1317 equiv q12h dose of ETX0282 are summarized in Table S3.

Data set [2] in a line: Intravenous pharmacokinetics of ETX1317. Format: in vivo, monkey. How it is done:
Intravenous pharmacokinetics of ETX1317 investigated in jugular vein cannulated male Sprague–Dawley rats (Charles River Laboratories, n = 3/route) at a dose of 10 mg/kg formulated in 0.9% saline. Oral pharmacokinetics of ETX0282 was evaluated at a 10 mg/kg equivalent dose of ETX1317 formulated in 25:75 PEG 400:WFI. The pH of each formulation was verified to fall within a range of 4–7 and were confirmed to be in solution prior to dosing. Potency was verified by LC/MS/MS. Dose volumes were 5 and 10 mL/kg for ETX1317(i.v.) and ETX0282(p.o.), respectively for rats. In both dog (male, 3/route) and monkey (male, 3/route) studies, i.v. and p.o. doses were formulated on 25:75 PEG 400:WFI (pH ∼5) and administered at a dose of ∼1 mg/kg. Dose volume was 1 mL/kg for both routes in dogs and monkeys with the i.v. dose infused over 15 min. For oral doses, gavage tubes were flushed with 10 mL after administration of the dose. i.v. doses were sterile-filtered through 0.22 μm PVDF membrane prior to administration into the cephalic vein.
Blood sampling (∼1 mL) for dogs and monkeys was carried out via venipuncture of the jugular vein at the following time points:
i.v.: pre-dose, 0.083, 0.25 (prior to end of infusion), 0.5, 1, 1.5, 2, 4, 6, 8, 12, and 24 h post-dose
Blood samples were centrifuged at 3200 rpm for 10 min at approximately 5 °C. Plasma samples (500 μL) were transferred to 96-well plate tubes (MatrixTech, 0.5 mL). An equal amount (500 μL) of SIGMAFAST protease inhibitor solution (1 tablet dissolved in 10 mL distilled water, Sigma-Aldrich Part No. S8820) was added as a preservative to the 96-well plate tubes resulting in a 1:1 dilution. Diluted plasma samples were stored at −80 ± 10 °C.
Urine collection was collected directly into Nalgene bottles placed under metabolism cages with frozen ice packs to chill urine over the collection interval. Urine was collected 0–12, and 12–24 h post-dose. Following collection of each urine sample, the total urine weight was recorded and 3 mL aliquots were retained for LC/MS/MS analysis.
Non-compartmental analysis of time vs concentration data for ETX1317, ETX0282, CPD, and CPDP was completed using WinNonlin 8.1 (Pharsite Corporation, Mountain View CA). The maximum concentration (Cmax) was the highest observed concentration; Tmax was the earliest time at which Cmax occurred; and the elimination half-life was estimated as ln 2/kel, where kel is the elimination rate constant derived from the slope of the log concentration versus time profile. The area under the concentration–time curve from 0 h to the last time point (AUC0-tlast) was calculated by linear trapezoidal approximation. Clearance (CL) was estimated as Dose/AUC0-tlast and the steady state volume of distribution (Vd,ss) was estimated as CL* MRT, where MRT = AUMC/AUC (MRT = mean residence time and AUMC = area under the moment curve). Oral bioavailability (F) was determined from ETX1317 concentrations and normalizing doses to free acid equivalence, where F = AUCp.o.*(dosei.v.)/AUCi.v.*(dosep.o.).

Another data set can be described thus: Plasma protein binding. Format: in vitro ADME, human. As to the method:
(§1) Plasma protein binding was determined by rapid equilibrium dialysis. Plasma was freshly prepared from blood samples drawn in to EDTA (anticoagulant) containing tubes. Plasma was prepared using a table-top centrifuge and spun per instruction of the tube manufacturer and specifications (Beckton, Dickinson and Company, Franklin Lakes, NJ) and placed on ice prior to use.
(§2) Pooled plasma samples were centrifuged at 2000 rpm (approximately 1400g) for 15 min at 4 °C to remove debris. Approximately 90% of the clear supernatant fraction was transferred to a separate tube. Samples (500 μL) were then spiked with a 100× stock solution 100 μM, 0.5 mM, and 10 mM ETX1317 in DMSO respectively for 1, 5, and 100 μM final concentrations, transferred to the top of the filter chambers, and allowed to equilibrate for 15 min prior to centrifugation. The filtrate tubes were centrifuged at 14000g for 15 min at 4 °C. Next, 50 μL of the filtrate was precipitated with 300 μL of acetonitrile containing 250 ng/mL of carbutamide as the internal standard and the samples were analyzed by LC/MS/MS analysis.

The nature of data set [3]: Plasma protein binding across species. Format: in vitro ADME, monkeys, humans, mice, rats, and dogs. The settings on record: monkey, human, mouse, rat, dog, range across species, 1 to 100 μM. As to the method:
Intravenous and oral pharmacokinetics of ETX1317 and ETX0282 in preclinical species are summarized in Table 7 and Table S1, respectively. Time vs concentration profiles are depicted graphically in Figure S1.
as §1, §2

Setting [4] is: male, monkey, plasma, iv, i.v. 0.87 mg/kg.

Read-outs that look alike come from different tables or passages of the source.

With `CC1=C[C@@H](C(N)=O)N2C[C@@H]1N(O[C@H](F)C(=O)O)C2=O` [ETX1317], the predicted human half-life in data set [1] (T1/2 = ln 2*Vd,ss/CLtotal) was 1.2 to 1.6 h. The CL/F in data set [1] (F% 60) is 17.6 to 23.7 L/h; in data set [1] (F% 70), 15.1 to 20.3 L/h; in data set [1] (F% 80) it was 13.2 to 17.8 L/h. Also, the V/F in data set [1] (F% 60) was 41 L; in data set [1] (F% 70), 35 L; in data set [1] (F% 80), 31 L. Also, the “renal clearance as % of total clearance” value in data set [2] (based upon excretion in the urine, range 23–63%) is given as around 40%. This compound registered an exposure (AUC) in data set [2] (setting [4]) of 2680 ± 210 ng·h/mL. The peak level in data set [2] (setting [4]) (Cmax) was 3120 ± 230 ng/mL. Further, the half-life in data set [2] (setting [4]) is 1.1 ± 0.1 h. Also, the clearance was 5.7 ± 0.7 mL/min/kg in data set [2] (male, monkey, plasma, iv, i.v. 0.87 mg/kg, read-out: CL); 2.2 mL/min/kg in data set [2] (male, monkey, urine and plasma, iv, i.v. 0.87 mg/kg, read-out: renal CL). Moreover, the Vd in data set [2] (male, monkey, plasma, iv, i.v. 0.87 mg/kg, read-out: Vd,ss) turned out to be 0.31 ± 0.02 L/kg. Also, the Proportion unbound in “Plasma protein binding” (1 µM) is listed as 82%; in the data set “Plasma protein binding” (5 µM) it was 99%; in the data set “Plasma protein binding” (100 µM), 80%. Besides, in data set [3], the unbound share (fraction unbound) at 15 min was 0.77 to 1.

One may read the CL/F as clearance divided by bioavailability, as obtained after extravascular dosing. What is called AUC is concentration integrated over time. Low readings indicate low exposure, high ones high exposure. The term Cmax denotes the peak of the concentration-time curve. In general, half-life refers to the time needed for the level to fall by half in the phase considered. A word on the Vd: it is the apparent volume that relates the amount in the body to the concentration in plasma or blood. As a reminder, the fraction unbound is the share of the substance not bound to proteins or other matrix. Read a low fraction unbound as extensive binding.
